The text below walks through data of PubChem BioAssay (NCI).

Holding throughout (test): NCI tumour cell line growth inhibition, 48 h
In test [1] the test system is NCI-H226 lung.
The subject of test [2] is MALME-3M melanoma.
The test system of test [3] is EKVX NSCLC.
Test [4] relates to SF-268 CNS.
Test [5] relates to SF-539 CNS.
Test [6] concerns NCI-H460 lung.

Each structure is given as a SMILES string.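 These data come from cells grown in 96-well plates and exposed to compound for 48 hours at five concentrations. GI50 is the concentration that inhibits growth by half. TGI: total growth inhibition.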

Take `O=C1C=Cc2ccccc2/C1=C/c1[nH]c(=O)[nH]c1O`: the GI50 in test [1] was 9.59 µM; in test [2] it was 4.19 µM; in test [3], 2.46 µM; in test [4], 7.27 µM; in test [5] it was 3.38 µM; in test [6], 9.71 µM. Besides, the TGI in test [1] was above 100 µM; in test [2], 88.2 µM; in test [3], 25.4 µM; in test [4] it was above 100 µM; in test [5], 16.8 µM; in test [6] it was 30.9 µM.
For the compound `Cn1c(=O)c2[nH]c(CS(=O)(=O)Cc3nc4c([nH]3)c(=O)n(C)c(=O)n4C)nc2n(C)c1=O`, the TGI in test [1], in test [2], in test [3], in test [4], in test [5] and in test [6] was above 100 µM each time.
As to `O=C(NOCC1CC1)c1ccc(F)c(F)c1Nc1ccc(I)cc1Cl`, the GI50 in test [1] is 2.77 µM; in test [2], 0.0228 µM; in test [4] it was 2.82 µM; in test [5] it was 2.24 µM; in test [6] it was 2.42 µM. Besides, the TGI in test [1] was above 52.1 µM; in test [2], 0.0674 µM; in test [4], above 100 µM; in test [5], 9.73 µM; in test [6], above 100 µM.
`N=C(N)CCCCCCCCC(=N)N`: the GI50 in test [1] was 15.7 µM; in test [2], 39.9 µM; in test [3], 9.51 µM; in test [4] it was 42.6 µM; in test [5], 35.4 µM; in test [6], 18.8 µM. Also, the TGI in test [1], in test [2], in test [3], in test [4], in test [5] and in test [6] was above 100 µM in each case.
On to `O=C(CCCn1ccnc1[N+](=O)[O-])NCCn1ccnc1`, for which the TGI in test [1], in test [2], in test [4], in test [5] and in test [6] was above 100 µM throughout.
For `COC(=O)/C(=C\c1c(C)[nH]c2ccccc12)S(=O)(=O)c1ccccc1`, the GI50 in test [1] was 4.34 µM; in test [2] it was 7.27 µM; in test [3] it was 5.04 µM; in test [4], 3.33 µM; in test [5] it was 3.4 µM; in test [6], 2.99 µM. Moreover, the TGI in test [1] was 19.5 µM; in test [2], 32.6 µM; in test [3], above 100 µM; in test [4], 11.1 µM; in test [5] it was 11.5 µM; in test [6] it was 9.61 µM.
Turning to `CC[N+](CC)(CC)CCCn1c2c(c3ccccc3c1=O)C(=O)c1ccccc1-2`, the GI50 in test [4] is 3.42 µM; in test [6], 1.85 µM. Also, the values for the TGI in test [4] and in test [6] were 24.4 µM and 4.49 µM, respectively.
With `COc1cc2c(/C=C3/C(=O)Nc4ccccc43)c(Cl)n(Cc3ccccc3[N+](=O)[O-])c2cc1C`, the GI50 in test [1] is 12.7 µM; in test [2] it was 3.41 µM; in test [3], 5.66 µM; in test [4] it was 24 µM; in test [5], 14.3 µM; in test [6], 5.51 µM. The TGI in test [1] is 38.4 µM; in test [2], 13.8 µM; in test [3], 29.5 µM; in test [4] it was above 100 µM; in test [5] it was 40.4 µM; in test [6], above 100 µM.
Regarding `CC(NNC(=S)N1CCCCCC1)c1ccc2ccccc2n1` (stereo not drawn), the GI50 in test [1] was 2.74 µM; in test [2], 3.15 µM; in test [4] it was 1.72 µM; in test [5], 1.68 µM; in test [6], 1.05 µM. For the same compound, the TGI in test [1] was 23.2 µM; in test [2] it was 37.8 µM; in test [4] it was 43.7 µM; in test [5], 12.6 µM; in test [6], above 78.9 µM.
For `O=c1cc(-c2ccccc2)nc2n1CCN2Cc1ccccc1`, the GI50 is 54.7 µM in test [1]; 30.5 µM in test [3]; 46.9 µM in test [4]; 27.8 µM in test [5]; 36 µM in test [6]. Also, the TGI in test [1] was above 100 µM; in test [3], 96.1 µM; in test [4], above 100 µM; in test [5], 73.5 µM; in test [6], above 100 µM.
As for `CN(C)c1ccc2c3c(c(=O)oc2c1)CCC3`, the TGI in test [1], in test [3], in test [4], in test [5] and in test [6] was above 100 µM in each case.
On to `CCSc1nc(N=Cc2cccs2)c2cn[nH]c2n1`, for which the GI50 in test [1] was 0.299 µM; in test [3] it was 67.8 µM; in test [4], 6.49 µM; in test [5], 25.3 µM; in test [6], 14.5 µM. For the same compound, the TGI was 43.2 µM in test [1]; above 100 µM in test [3]; above 100 µM in test [4]; above 100 µM in test [5]; above 100 µM in test [6].
Take `C[C@]12CC[C@@H]3c4ccc(O)cc4CC[C@H]3[C@@H]1CC[C@@H]2NS(=O)(=O)Cc1ccc(Cl)cc1`: the GI50 is 3.19 µM in test [1]; 2.85 µM in test [2]; 3.16 µM in test [4]; 1.88 µM in test [5]; 2.23 µM in test [6]. Also, the TGI in test [1] is 12.6 µM; in test [2], 9.95 µM; in test [4] it was 12.5 µM; in test [5], 4.39 µM; in test [6], 5.31 µM.
As to `S=C(N/N=C/c1ccccn1)Nc1ccccn1`, the GI50 was 2.08 µM in test [1]; 1.81 µM in test [2]; 2.29 µM in test [4]; 1.81 µM in test [5]; 0.962 µM in test [6]. Also, the TGI in test [1] was 11.8 µM; in test [2] it was above 100 µM; in test [4], above 100 µM; in test [5], 9.02 µM; in test [6] it was 12.6 µM.
For the compound `Cc1nc2cccc(NCc3ccc(C(=O)NO)cc3)c2c(=O)n1-c1ccccc1`, the GI50 is 2.01 µM in test [1]; 1.48 µM in test [2]; 2.08 µM in test [3]; 1.89 µM in test [5]; 2.21 µM in test [6]. Also, the TGI in test [1] came out at 6.08 µM; in test [2], 3.26 µM; in test [3], 4.9 µM; in test [5], 4.05 µM; in test [6], 10.5 µM.
